# From patent publication US20140276355A1, “Co-administration of Light and a Therapeutic Agent to Stimulate Dysfunctional Mitochondria Affected By a Neurological Disorder” (MEDOS INTERNATIONAL SARL, priority 2013, published 2014)
# Tests used:
# [1] = system: Drosophila model for Parkinson disease; test: Flight assay in Drosophila model for Parkinson disease; assay type: in vivo
# Procedure: Flight assays were conducted using male flies in batches of 5 flies each. Flies were placed in an empty vial (5 cm×10 cm), gently tapped and scored visually for their ability to fly. […] The combination of both treatments (e.g., Vitamin K2 and light) provided more than 50% restoration of the locomotor impairment.
# Heixudian mutants = details: Drosophila Heixudian mutants; Vos et al., Science 2012; cited from earlier work
smiles,measurement,setting,value
CC(C)=CCC/C(C)=C/CC/C(C)=C/CC/C(C)=C/CC1=C(C)C(=O)c2ccccc2C1=O [Vitamin K2],restoration of the locomotor impairment (flight capacity),"[1]; combination of Vitamin K2 and light (808 nm continuous laser diode, 100 s, 25 mW/cm2)",more than 50%
same,restored flight capability (animals able to fly),"[1]; systemic administration of Vitamin K2 alone, male flies, non-treated controls less than 15%",about 30%
same,severe mitochondria defects,Heixudian mutants,rescued
